Measured values published in patent publication US5314998A, “Organic solvent-soluble metal-azo and metal-azomethine dyes” (Minnesota Mining and Manufacturing Company, priority 1992, dated 1994).

Tests used:
[1] = reported to decompose, apparently without melting; cited from earlier work
[2] = Thermogravimetric analysis, loss of pyridine ligand; type: physicochemical
[3] = Differential Scanning Calorimeter scan, melting behaviour; conditions: Differential Scanning Calorimeter scan of analytically pure compound
Protocol: Melting points of the metal complexes were determined using a Thomas-Hoover melting point apparatus or by differential scanning calorimetry at a heating rate of 5° C. per minute.

[4] = Solubility in heptane (absorbance at maximum of saturated solution), chromium metal-azo complexes; type: physicochemical; conditions: room temperature (22° C.)
Protocol: The samples were prepared by shaking the dye in heptane for several hours, allowing the samples to sit overnight, and filtering through a plug of glass wool to remove particulates.

[5] = Solubility in heptane (absorbance at maximum), four-coordinate platinum metal-azo complexes; type: physicochemical; conditions: ambient temperature
Excerpt: ^b result obtained by measuring in a 1 cm cell and dividing result by
^c estimate based on fitting the spectrum in the 510-550 nm region.

Compound | Temperature of 50% Loss of Pyridine Ligand [2] [°C] | DSC melting behaviour [3] | Absorbance at Maximum in Heptane/1 mm Cell [4] | also measured
[Cu+2].[O-]c1ccccc1N=Nc1ccccc1[O-].c1ccncc1 [Compound 8, [[2,2-azobis[phenolato]](-2)-N,O,O](pyridine)copper] | 133 | – | – | decomposition temperature [1]: 310 °C
CCCCC(CCCC)c1ccncc1.[Cu+2].[O-]c1ccccc1N=Nc1ccccc1[O-] [Compound 9, [[2,2-azobis[phenolato]](-2)-N,O,O](4-(5-nonylpyridine))copper] | 148 | has a classic melting transition associated with organic-like compounds | – | –
CCCCC(CCCC)c1ccncc1.CCCCN(CCCC)S(=O)(=O)c1ccc([O-])c(N=Nc2c([O-])ccc3ccccc23)c1.[Cu+2] [Compound 11, [1-[5-N,N-dibutylsulfonamido-2-hydroxyphenyl]azo-2-naphthalenolato(-2)](4-(5-nonylpyridine))copper] | 223 | has a classic melting transition associated with organic-like compounds | – | –
CC(=O)[CH-]C(C)=O.[Cr+3].[O-]c1ccccc1N=Nc1ccccc1[O-].c1ccncc1 [Compound 28, [[2,2-azobis[phenolato]](-2)-N,O,O](pyridine)(2,4-pentanedionato-O,O)chromium] | – | – | 0.022 | –
CC(=O)C=C(C)[O-].CCc1ccncc1.[Cr+3].[O-]c1ccccc1N=Nc1ccccc1[O-] [Compound 31, [[2,2-azobis[phenolato]](-2)-N,O,O](2,4-pentanedionato-O,O)(4-ethylpyridine)chromium] | – | – | 0.644 | –
CC(=O)C=C(C)[O-].CCOC(=O)c1cccnc1.[Cr+3].[O-]c1ccccc1N=Nc1ccccc1[O-] [Compound 32, [[2,2-azobis[phenolato]](-2)-N,O,O](2,4-pentanedionato-O,O)(ethyl nicotinate)chromium] | – | – | 0.362 | –
[O-]c1ccccc1N=Nc1ccccc1[O-].[Pt+2].c1ccncc1 [Pt(DHAB)Py, [[2,2azobis[phenolato]](2)-N,O,O](pyridine)platinum, reference compound] | – | – | – | Absorbance at Maximum in Heptane/1 mm Cell [5]: 0.41
[1-[5-N,N-dibutylsulfonamido-2-hydroxyphenyl]azo-2-naphthalenolato(-2)](pyridine)copper [Compound 10] | 180 | does not exhibit a clean melt | – | –
[[2,2-azobis[phenolato]](-2)-N,O,O](2,4-pentanedionato-O,O)(ethyl isonicotinate)chromium [Compound 33] | – | – | 0.634 | –
[[2,2-azobis[phenolato]](-2)-N,O,O](4-n-octylpyridine)platinum [Compound 17] | – | – | – | Absorbance at Maximum in Heptane/1 mm Cell [5]: 2.49
